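Dose response: 5 concentrations. Exposure: 48 h. Format: 96-well plates. Endpoint: linear interpolation; highest concentration if not reached. TGI is the concentration that stops growth completely.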
Assays:
Assay in all cases: NCI anticancer screen, dose series, 48 h
[1] = system: U251 CNS
[2] = system: SK-MEL-28 melanoma
[3] = system: 786-0 renal
[4] = system: SF-539 CNS
[5] = system: NCI-H23 lung
[6] = system: NCI/ADR-RES ovarian
[7] = system: MDA-N
[8] = system: M14 melanoma
[9] = system: SF-268 CNS
[10] = system: NCI-H226 lung
[11] = system: NCI-H460 lung
[12] = system: SK-MEL-2 melanoma
[13] = system: NCI-H522 lung
[14] = system: HT29 colon
[15] = system: MDA-MB-231 breast
[16] = system: MALME-3M melanoma
[17] = system: PC-3 prostate
[18] = system: A498 renal
[19] = system: LOX IMVI melanoma
[20] = system: BT-549 breast
[21] = system: SW-620 colon
[22] = system: K-562 leukemia
[23] = system: EKVX NSCLC
[24] = system: MDA-MB-435
[25] = system: KM12 colon
[26] = system: OVCAR-8 ovarian
[27] = system: SN12C renal
[28] = system: ACHN renal
[29] = system: CCRF-CEM leukemia
[30] = system: RXF 393 renal
[31] = system: T-47D breast
[32] = system: OVCAR-4 ovarian
[33] = system: MOLT-4 leukemia
[34] = system: A549 NSCLC
[35] = system: HCT-116 colon
[36] = system: UACC-257 melanoma
[37] = system: SNB-75 CNS
[38] = system: HOP-92 NSCLC
[39] = system: SF-295 CNS
[40] = system: DU-145 prostate
[41] = system: HCC-2998 colon
[42] = system: MCF7 breast
[43] = system: UO-31 renal
[44] = system: COLO 205 colon
[45] = system: IGROV1 ovarian
[46] = system: HS 578T breast
[47] = system: SK-MEL-5 melanoma
[48] = system: OVCAR-3 ovarian
[49] = system: RPMI-8226 leukemia
[50] = system: HCT-15 colon
[51] = system: SNB-19 CNS
[52] = system: SK-OV-3 ovarian
[53] = system: TK-10 renal
[54] = system: HOP-62 NSCLC
[55] = system: OVCAR-5 ovarian
[56] = system: CAKI-1 renal
[57] = system: SR leukemia
[58] = system: UACC-62 melanoma

Compound `Clc1ccc2c(NCCCCN=Cc3ccccc3)ccnc2c1` has a TGI [1] of 24.5 µM, a TGI [2] of 29 µM and a TGI [3] of 22.2 µM. For the same compound, the TGI [4] was 24.7 µM, the TGI [5] was 25.1 µM and the TGI [6] was 46.7 µM. It also gave a TGI [7] of 23.9 µM, a TGI [8] of 27.4 µM and a TGI [9] of 35 µM. For the same compound, the TGI [10] was 20 µM, the TGI [11] was 24.2 µM and the TGI [12] was 24.5 µM. It also gave a TGI [13] of 24.5 µM, a TGI [14] of 21.6 µM and a TGI [15] of 29 µM. The TGI [16] was 27.5 µM, the TGI [17] was 25.1 µM and the TGI [18] was 7.26 µM. For the same compound, the TGI [19] was > 100 µM, the TGI [20] was 32.6 µM and the TGI [21] was 25.2 µM. For the same compound, the TGI [22] was > 100 µM, the TGI [23] was 43.7 µM and the TGI [24] was 25.2 µM. It also gave a TGI [25] of 20.8 µM, a TGI [26] of 32 µM and a TGI [27] of 21.5 µM. For the same compound, the TGI [28] was 49 µM, the TGI [29] was > 100 µM and the TGI [30] was 16.6 µM. For the same compound, the TGI [31] was 45.7 µM, the TGI [32] was 28.1 µM and the TGI [33] was 25.7 µM. The TGI [34] was 31.3 µM, the TGI [35] was 18.4 µM and the TGI [36] was 26 µM. It also gave a TGI [37] of 24.1 µM, a TGI [38] of 26.3 µM and a TGI [39] of 28 µM. It also gave a TGI [40] of 80.8 µM, a TGI [41] of 27.8 µM and a TGI [42] of 28.6 µM. It also gave a TGI [43] of 40.3 µM, a TGI [44] of 18.1 µM and a TGI [45] of 36.5 µM. The TGI [46] was 36.6 µM, the TGI [47] was 26.5 µM and the TGI [48] was 41.9 µM. For the same compound, the TGI [49] was > 100 µM, the TGI [50] was 33.1 µM and the TGI [51] was 45.7 µM. It also gave a TGI [52] of 59.8 µM, a TGI [53] of 64 µM and a TGI [54] of 23.7 µM. For the same compound, the TGI [55] was 40.4 µM.
`NS(=O)(=O)c1nnc(NC(=O)c2ccccc2)s1` was tested, and the TGI [1] was > 100 µM, the TGI [2] was > 100 µM and the TGI [3] was > 100 µM. For the same compound, the TGI [4] was > 100 µM, the TGI [5] was > 100 µM and the TGI [6] was > 100 µM. The TGI [7] was > 100 µM, the TGI [8] was > 100 µM and the TGI [9] was > 100 µM. For the same compound, the TGI [10] was > 100 µM, the TGI [11] was > 100 µM and the TGI [12] was > 100 µM. For the same compound, the TGI [13] was > 100 µM, the TGI [15] was > 100 µM and the TGI [16] was > 100 µM. The TGI [18] was > 100 µM, the TGI [19] was > 100 µM and the TGI [20] was > 100 µM. The TGI [21] was > 100 µM, the TGI [22] was > 100 µM and the TGI [56] was > 100 µM. The TGI [23] was > 100 µM, the TGI [24] was > 100 µM and the TGI [25] was > 100 µM. For the same compound, the TGI [26] was > 100 µM, the TGI [27] was > 100 µM and the TGI [28] was > 100 µM. The TGI [30] was > 100 µM, the TGI [31] was > 100 µM and the TGI [32] was > 100 µM. The TGI [33] was > 100 µM, the TGI [34] was > 100 µM and the TGI [35] was > 100 µM. The TGI [36] was > 100 µM, the TGI [38] was > 100 µM and the TGI [39] was > 100 µM. For the same compound, the TGI [40] was > 100 µM, the TGI [41] was > 100 µM and the TGI [42] was > 100 µM. For the same compound, the TGI [43] was > 100 µM, the TGI [44] was > 100 µM and the TGI [46] was > 100 µM. For the same compound, the TGI [47] was > 100 µM, the TGI [57] was > 100 µM and the TGI [48] was > 100 µM. For the same compound, the TGI [49] was > 100 µM, the TGI [50] was > 100 µM and the TGI [51] was > 100 µM. The TGI [52] was > 100 µM, the TGI [53] was > 100 µM and the TGI [58] was > 100 µM. For the same compound, the TGI [54] was > 100 µM and the TGI [55] was > 100 µM.
